Where a name gives a salt, the structure may show the parent alone. ± gives the standard deviation of the averaged measurements.
Experiments:
[1] = test system: 409B2 hiPSC (iCRISPR Cas9, FRMD7 editing); assay: cell survival relative to solvent control (fold (ratio to mock)); higher = more surviving cells
Experimental: (§1)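 Subset screen of 55 drugs tested at 5 concentrations around the effective screening dose, in 409B2 iCRISPR Cas9 hiPSCs editing FRMD7 with a ssDNA donor. Drugs were applied for 24 h. Viability was read by resazurin and editing outcomes by amplicon sequencing (HDR, NHEJ <2 bp microhomology, MMEJ ≥2 bp microhomology). Values are relative to solvent mock controls; two biological replicates.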

[2] = test system: 409B2 hiPSC (iCRISPR Cas9, FRMD7 editing); assay: HDR (precise edit) frequency relative to solvent control (fold (ratio to mock)); higher = more homology-directed repair outcomes
Experimental: as §1

[3] = test system: 409B2 hiPSC (iCRISPR Cas9, FRMD7 editing); assay: NHEJ-attributed indel frequency relative to solvent control (fold (ratio to mock)); higher = more NHEJ outcomes
Experimental: as §1

[4] = test system: 409B2 hiPSC (iCRISPR Cas9, FRMD7 editing); assay: MMEJ-attributed deletion frequency relative to solvent control (fold (ratio to mock)); higher = more MMEJ outcomes
Experimental: as §1

Compound | cell survival ([1]; 20 nM) | cell survival ([1]; 50 nM) | HDR ([2]; 20 nM) | HDR ([2]; 50 nM) | NHEJ-attributed indel frequency ([3]; 20 nM) | NHEJ-attributed indel frequency ([3]; 50 nM) | MMEJ-attributed deletion frequency ([4]; 20 nM) | MMEJ-attributed deletion frequency ([4]; 50 nM) | cell survival ([1]; 200 nM) | cell survival ([1]; 500 nM) | cell survival ([1]; 1000 nM) | cell survival ([1]; 2000 nM) | cell survival ([1]; 5000 nM) | HDR ([2]; 200 nM) | HDR ([2]; 500 nM) | HDR ([2]; 1000 nM) | NHEJ-attributed indel frequency ([3]; 200 nM) | NHEJ-attributed indel frequency ([3]; 500 nM) | MMEJ-attributed deletion frequency ([4]; 200 nM) | MMEJ-attributed deletion frequency ([4]; 500 nM) | other results
CC[C@]1(O)C[C@@H]2CN(CCc3c([nH]c4ccccc34)[C@@](C(=O)OC)(c3cc4c(cc3OC)N(C)[C@H]3[C@@](O)(C(=O)OC)[C@H](OC(C)=O)[C@]5(CC)C=CCN6CC[C@]43[C@@H]65)C2)C1 [vinblastine] (in DMSO) | 0.00549 | 0.0072 | 0.249 ± 0.051 | 0.248 ± 0.035 | 0.415 ± 0.0047 | 0.557 ± 0.013 | 0.674 ± 0.053 | 0.827 ± 0.05 | – | – | – | – | – | – | – | – | – | – | – | – | cell survival ([1]; 2 nM): 0.524; cell survival ([1]; 5 nM): 0.114; cell survival ([1]; 10 nM): 0.0472; HDR ([2]; 2 nM): 0.877 ± 0.038; HDR ([2]; 5 nM): 0.65 ± 0.05; HDR ([2]; 10 nM): 0.556 ± 0.031; NHEJ-attributed indel frequency ([3]; 2 nM): 1.07 ± 0.05; NHEJ-attributed indel frequency ([3]; 5 nM): 0.982 ± 0.17; NHEJ-attributed indel frequency ([3]; 10 nM): 0.857 ± 0.17; MMEJ-attributed deletion frequency ([4]; 2 nM): 1.02 ± 0.27; MMEJ-attributed deletion frequency ([4]; 5 nM): 1.51 ± 0.71; MMEJ-attributed deletion frequency ([4]; 10 nM): 0.931 ± 0.61
Cc1nc(=O)c2cc(CN(C)c3ccc(C(=O)N[C@@H](CCC(=O)O)C(=O)O)s3)ccc2[nH]1 [Raltitrexed] (in DMSO) | – | – | – | – | – | – | – | – | 1.09 | 1.21 | 0.963 | 1.05 | 1.11 | 1.138 ± 0.0048 | 1.13 ± 0.038 | 1.16 ± 0.1 | 0.977 ± 0.023 | 0.967 ± 0.01 | 1.01 ± 0.14 | 1 ± 0.078 | HDR ([2]; 2000 nM): 1.13 ± 0.042; HDR ([2]; 5000 nM): 1.13 ± 0.14; NHEJ-attributed indel frequency ([3]; 1000 nM): 0.984 ± 0.021; NHEJ-attributed indel frequency ([3]; 2000 nM): 0.981 ± 0.026; NHEJ-attributed indel frequency ([3]; 5000 nM): 0.957 ± 0.039; MMEJ-attributed deletion frequency ([4]; 1000 nM): 1.12 ± 0.035; MMEJ-attributed deletion frequency ([4]; 2000 nM): 0.948 ± 0.012; MMEJ-attributed deletion frequency ([4]; 5000 nM): 1.02 ± 0.057
CCCCc1oc2ccc(NS(C)(=O)=O)cc2c1C(=O)c1ccc(OCCCN(CCCC)CCCC)cc1 [Dronedarone HCl] (in DMSO) | – | – | – | – | – | – | – | – | 1.15 | 1.01 | 0.696 | 0.521 | 0.261 | 0.891 ± 0.2 | 0.835 ± 0.2 | 0.734 ± 0.051 | 0.991 ± 0.011 | 1.04 ± 0.043 | 0.537 ± 0.76 | 0.463 ± 0.65 | HDR ([2]; 2000 nM): 0.513 ± 0.071; HDR ([2]; 5000 nM): 0.556 ± 0.012; NHEJ-attributed indel frequency ([3]; 1000 nM): 1.01 ± 0.013; NHEJ-attributed indel frequency ([3]; 2000 nM): 0.958 ± 0.093; NHEJ-attributed indel frequency ([3]; 5000 nM): 1.06 ± 0.092; MMEJ-attributed deletion frequency ([4]; 1000 nM): 0.895 ± 0.18; MMEJ-attributed deletion frequency ([4]; 2000 nM): 0.923 ± 0.16; MMEJ-attributed deletion frequency ([4]; 5000 nM): 1.18 ± 0.34
CSCCC(N)C(=O)O (racemic) [DL-Methionine] (in H2O) | 0.974 | 0.972 | 1.001 ± 0.0057 | 0.932 ± 0.021 | 1.01 ± 0.025 | 1.038 ± 0.0021 | 0.912 ± 0.069 | 0.924 ± 0.017 | 0.957 | 0.861 | – | – | – | 0.937 ± 0.044 | 0.917 ± 0.011 | – | 1.03 ± 0.011 | 1.02 ± 0.016 | 0.877 ± 0.13 | 0.912 ± 0.042 | cell survival ([1]; 100 nM): 0.891; HDR ([2]; 100 nM): 0.943 ± 0.051; NHEJ-attributed indel frequency ([3]; 100 nM): 1.04 ± 0.0044; MMEJ-attributed deletion frequency ([4]; 100 nM): 0.802 ± 0.018
CC(C)/N=c1\cc2n(-c3ccc(Cl)cc3)c3ccccc3nc-2cc1Nc1ccc(Cl)cc1 [Clofazimine] (in DMSO) | – | – | – | – | – | – | – | – | 0.955 | 1.06 | 0.752 | 0.597 | 0.252 | 0.942 ± 0.032 | 0.91 ± 0.019 | 0.912 ± 0.042 | 1.01 ± 0.022 | 1.027 ± 0.004 | 1.07 ± 0.15 | 0.967 ± 0.077 | HDR ([2]; 2000 nM): 0.794 ± 0.029; HDR ([2]; 5000 nM): 0.772 ± 0.058; NHEJ-attributed indel frequency ([3]; 1000 nM): 0.999 ± 0.017; NHEJ-attributed indel frequency ([3]; 2000 nM): 1.028 ± 0.0037; NHEJ-attributed indel frequency ([3]; 5000 nM): 0.974 ± 0.014; MMEJ-attributed deletion frequency ([4]; 1000 nM): 0.949 ± 0.022; MMEJ-attributed deletion frequency ([4]; 2000 nM): 0.957 ± 0.097; MMEJ-attributed deletion frequency ([4]; 5000 nM): 0.791 ± 0.14
CS(=O)(=O)N1CCN(Cc2cc3nc(-c4cccc5[nH]ncc45)nc(N4CCOCC4)c3s2)CC1 [GDC-0941] (in DMSO) | 0.924 | 0.877 | 1.15 ± 0.048 | 1.08 ± 0.0031 | 0.978 ± 0.0067 | 0.99142 ± 0.00057 | 1.02 ± 0.14 | 0.875 ± 0.054 | 0.444 | 0.15 | – | – | – | 1.14 ± 0.076 | 1.06 ± 0.19 | – | 0.94 ± 0.041 | 0.86 ± 0.063 | 0.926 ± 0.2 | 0.887 ± 0.078 | cell survival ([1]; 100 nM): 0.7; HDR ([2]; 100 nM): 1.08 ± 0.075; NHEJ-attributed indel frequency ([3]; 100 nM): 0.945 ± 0.042; MMEJ-attributed deletion frequency ([4]; 100 nM): 0.874 ± 0.016
